Assays:
Type in all cases: in vivo
conscious rat = assay: Antihypertensive evaluation (AHP3): aortic blood pressure and heart rate; conditions: for Mμ.c. ↓ / HR ↑: conscious rat; for Mμ.c. ↓: decrease in mean arterial blood pressure; for HR ↑: heart rate increase
male Swiss-Webster mice = assay: Analgesic evaluation: antiwrithing (AW) test, acetic acid; conditions: Mus musculus, sc, read-out: AW ED50
Method: The antiwrithing (AW) test provides preliminary assessment of compounds with potential analgesic activity. The test is performed in male Swiss-Webster mice. Compounds are administered subcutaneously in aqueous 0.2% methylcellulose or other appropriate vehicles in volumes of 10 ml/kg. Dosages represent activity moiety.
Acetic acid (0.6%, 10 ml/kg) is injected intraperitroneally 20 minutes after administration of the adenosine agonist. Writhing movements are counted for five minutes starting seven minutes after the acetic acid injection. Writhing is defined as abdominal constriction and stretching of the body and hind legs with concave arching of the back. […] EDso values are calculated by nonlinear regression analysis.

Swiss-Webster male mice = assay: Mouse Activity and Screen Test (MAST): inhibition of spontaneous locomotion (LI); conditions: for Inhibition of mouse locomotor activity: one hour prior to testing, vs vehicle

OC[C@H]1O[C@@H](n2cnc3c(NCC(c4ccccc4)c4ccccc4)ncnc32)[C@H](O)[C@@H]1O [Example 1, N^6-(2,2-Diphenylethyl)adenosine] was tested, and the “Mμ.c. ↓” value (conscious rat; 1 mg/kg) was 16%, the “HR ↑” value (conscious rat; 1 mg/kg) was under 20% and the “Mμ.c. ↓” value (conscious rat; 3 mg/kg) was 20%. The “HR ↑” value (conscious rat; 3 mg/kg) was under 20%, the “Mμ.c. ↓” value (conscious rat; 10 mg/kg) was 20% and the “HR ↑” value (conscious rat; 10 mg/kg) was under 20%. For the same compound, the “Mμ.c. ↓” value (conscious rat; 30 mg/kg) was 35%, the “HR ↑” value (conscious rat; 30 mg/kg) was under 20% and the minimal effective dose (conscious rat; Rattus norvegicus, read-out: AHP3 BP LAD) was 1 mg/kg. For the same compound, the ED50 (male Swiss-Webster mice) was 6.9 mg/kg, the “Inhibition of mouse locomotor activity” value (Swiss-Webster male mice; 10 mg/kg intraperitoneally) was 92% and the “Inhibition of mouse locomotor activity” value (Swiss-Webster male mice; 30 mg/kg intraperitoneally) was 93%. For the same compound, the “Inhibition of mouse locomotor activity” value (Swiss-Webster male mice; 100 mg/kg intraperitoneally) was 94% and the minimal effective dose (Swiss-Webster male mice; Mus musculus, ip, read-out: MAST LI LAD) was 3 mg/kg.
